# From ChEMBL document CHEMBL1201861, “Genomics of Drug Sensitity in Cancer screening data, Wellcome Trust Sanger Institute”
# Legend:
# Test in all cases: cells
# SiHa = assay type: functional, cell-based, Homo sapiens; details: Homo sapiens, SiHa;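 further: Viability-based readout of growth inhibition in SiHa cells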
# Description: SANGER: Inhibition of human SiHa cell growth in a cell viability assay.
# GT3TKB = assay type: functional, cell-based, Homo sapiens; details: Homo sapiens, GT3TKB;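 further: growth inhibition of the cell line, read out with a cell viability assay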
# Description: SANGER: Inhibition of human GT3TKB cell growth in a cell viability assay.
# GMS-10 = assay type: functional, cell-based, Homo sapiens; details: Homo sapiens, GMS-10;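 further: growth inhibition of GMS-10 cells, read out as cell viability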
# Description: SANGER: Inhibition of human GMS-10 cell growth in a cell viability assay.
# IGR-1 = assay type: functional, cell-based, Homo sapiens; details: Homo sapiens, IGR-1;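 further: growth inhibition of human IGR-1 cells, read out with a cell viability assay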
# Description: SANGER: Inhibition of human IGR-1 cell growth in a cell viability assay.
# OMC-1 = assay type: functional, cell-based, Homo sapiens; details: Homo sapiens, OMC-1;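 further: growth inhibition of the OMC-1 cell line, measured by a cell viability assay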
# Description: SANGER: Inhibition of human OMC-1 cell growth in a cell viability assay.
# MIA PaCa-2 = assay type: functional, cell-based, Homo sapiens; details: Homo sapiens, MIA PaCa-2;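 further: growth inhibition of MIA PaCa-2 cells, read out with a cell viability assay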
# Description: SANGER: Inhibition of human MIA-PaCa-2 cell growth in a cell viability assay.
# Lu-65 = assay type: functional, cell-based; details: Homo sapiens;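 further: growth inhibition of Lu-65 cancer cells, read out by a cell viability assay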
# Description: SANGER: Inhibition of human LU-65 cell growth in a cell viability assay.
# IST-MEL1 = assay type: functional, cell-based, Homo sapiens; details: Homo sapiens, IST-MEL1;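 further: growth inhibition of the cell line, read out with a cell viability assay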
# Description: SANGER: Inhibition of human IST-MEL1 cell growth in a cell viability assay.
# QIMR-WIL = assay type: functional, cell-based; details: Homo sapiens;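 further: growth inhibition of QIMR-WIL cells, read out with a cell viability assay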
# Description: SANGER: Inhibition of human QIMR-WIL cell growth in a cell viability assay.
# COR-L88 = assay type: functional, cell-based; details: Homo sapiens;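 further: growth inhibition of COR-L88 cells, read out with a cell viability assay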
# Description: SANGER: Inhibition of human COR-L88 cell growth in a cell viability assay.
# NCI-H2228 = assay type: functional, cell-based, Homo sapiens; details: Homo sapiens, NCI-H2228;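 further: growth inhibition of human NCI-H2228 cells, read out by a cell viability assay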
# Description: SANGER: Inhibition of human NCI-H2228 cell growth in a cell viability assay.
# EW-11 = assay type: functional, cell-based, Homo sapiens; details: Homo sapiens, EW-11;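 further: growth inhibition of human EW-11 cells, measured with a cell viability assay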
# Description: SANGER: Inhibition of human EW-11 cell growth in a cell viability assay.
# UACC-257 = assay type: functional, cell-based, Homo sapiens; details: Homo sapiens, UACC-257
# Description: SANGER: Inhibition of human UACC-257 cell growth in a cell viability assay.
# HCT-116 = assay type: functional, cell-based, Homo sapiens; details: Homo sapiens, HCT-116
# Description: SANGER: Inhibition of human HCT-116 cell growth in a cell viability assay.
# TGBC1TKB = assay type: functional, cell-based, Homo sapiens; details: Homo sapiens, TGBC1TKB;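 further: growth inhibition of TGBC1TKB cells, read out by a cell viability assay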
# Description: SANGER: Inhibition of human TGBC1TKB cell growth in a cell viability assay.
# DOK = assay type: functional, cell-based, Homo sapiens; details: Homo sapiens, DOK;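 further: cell viability assay read-out, values reflect inhibition of cell growth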
# Description: SANGER: Inhibition of human DOK cell growth in a cell viability assay.
# BFTC-909 = assay type: functional, cell-based, Homo sapiens; details: Homo sapiens, BFTC-909
# Description: SANGER: Inhibition of human BFTC-909 cell growth in a cell viability assay.
# LB996-RCC = assay type: functional, cell-based; details: Homo sapiens
# Description: SANGER: Inhibition of human LB996-RCC cell growth in a cell viability assay.
# IST-MES1 = assay type: functional, cell-based, Homo sapiens; details: Homo sapiens, IST-MES1;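 further: growth inhibition of IST-MES1 cells, measured with a cell viability assay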
# Description: SANGER: Inhibition of human IST-MES1 cell growth in a cell viability assay.
# NCI-H596 = assay type: functional, cell-based, Homo sapiens; details: Homo sapiens, NCI-H596;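 further: growth inhibition of NCI-H596 cells, read out with a cell viability assay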
# Description: SANGER: Inhibition of human NCI-H596 cell growth in a cell viability assay.
# HCC 2998 = assay type: functional, cell-based, Homo sapiens; details: Homo sapiens, HCC 2998;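 further: growth inhibition of human HCC2998 cells, measured with a cell viability read-out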
# Description: SANGER: Inhibition of human HCC2998 cell growth in a cell viability assay.
# NCI-N87 = assay type: functional, cell-based, Homo sapiens; details: Homo sapiens, NCI-N87;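 further: growth inhibition of human NCI-N87 cells, read out with a cell viability assay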
# Description: SANGER: Inhibition of human NCI-N87 cell growth in a cell viability assay.
# OVCAR-3 = assay type: functional, cell-based, Homo sapiens; details: Homo sapiens, OVCAR-3;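 further: growth inhibition of human OVCAR-3 cells, determined by a cell viability assay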
# Description: SANGER: Inhibition of human OVCAR-3 cell growth in a cell viability assay.
# Ca-Ski = assay type: functional, cell-based; details: Homo sapiens;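 further: cell viability assay measuring inhibition of Ca-Ski cell growth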
# Description: SANGER: Inhibition of human Ca-Ski cell growth in a cell viability assay.
# C32 = assay type: functional, cell-based, Homo sapiens; details: Homo sapiens, C32;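 further: cell viability assay, with IC50 reflecting inhibition of C32 cell growth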
# Description: SANGER: Inhibition of human C32 cell growth in a cell viability assay.
# MLMA = assay type: functional, cell-based, Homo sapiens; details: Homo sapiens, MLMA;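 further: growth inhibition of MLMA cells (human), determined through a cell viability readout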
# Description: SANGER: Inhibition of human MLMA cell growth in a cell viability assay.
# SW1990 = assay type: functional, cell-based, Homo sapiens; details: Homo sapiens, SW1990;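 further: cell growth inhibition determined with a viability assay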
# Description: SANGER: Inhibition of human SW1990 cell growth in a cell viability assay.
# HMV-2 cell line = assay type: functional, cell-based, Homo sapiens; details: Homo sapiens, HMV-2;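 further: growth inhibition of HMV-II cells, read out with a cell viability assay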
# Description: SANGER: Inhibition of human HMV-II cell growth in a cell viability assay.
# VA-ES-BJ = assay type: functional, cell-based, Homo sapiens; details: Homo sapiens, VA-ES-BJ;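 further: growth inhibition of the VA-ES-BJ cell line, read out by a cell viability assay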
# Description: SANGER: Inhibition of human VA-ES-BJ cell growth in a cell viability assay.
# NCI-H1395 = assay type: functional, cell-based, Homo sapiens; details: Homo sapiens, NCI-H1395;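 further: cell viability assay read-out quantifying reduced proliferation of human NCI-H1395 cells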
# Description: SANGER: Inhibition of human NCI-H1395 cell growth in a cell viability assay.
# LCLC-103H cell line = assay type: functional, cell-based, Homo sapiens; details: Homo sapiens, LCLC-103H
# Description: SANGER: Inhibition of human LCLC-103H cell growth in a cell viability assay.
# NCI-H1792 = assay type: functional, cell-based, Homo sapiens; details: Homo sapiens, NCI-H1792;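 further: growth inhibition of human NCI-H1792 cells, read out as cell viability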
# Description: SANGER: Inhibition of human NCI-H1792 cell growth in a cell viability assay.
# SW756 = assay type: functional, cell-based, Homo sapiens; details: Homo sapiens, SW756;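 further: growth inhibition of human SW756 cells, read out with a cell viability assay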
# Description: SANGER: Inhibition of human SW756 cell growth in a cell viability assay.
# SW684 = assay type: functional, cell-based, Homo sapiens; details: Homo sapiens, SW684;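 further: growth inhibition of human SW684 cells, measured by a cell viability assay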
# Description: SANGER: Inhibition of human SW684 cell growth in a cell viability assay.
# SF-126 = assay type: functional, cell-based, Homo sapiens; details: Homo sapiens, SF-126;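 further: growth inhibition of human SF126 cells, read out with a cell viability assay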
# Description: SANGER: Inhibition of human SF126 cell growth in a cell viability assay.
# 5637 = assay type: functional, cell-based, Homo sapiens; details: Homo sapiens
# Description: SANGER: Inhibition of human 5637 cell growth in a cell viability assay.
# Ca9-22 = assay type: functional, cell-based, Homo sapiens; details: Homo sapiens, Ca9-22;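 further: growth inhibition of Ca9-22 cells, read out with a cell viability assay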
# Description: SANGER: Inhibition of human Ca9-22 cell growth in a cell viability assay.
# NCI-H810 = assay type: functional, cell-based, Homo sapiens; details: Homo sapiens, NCI-H810;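 further: IC50 reflects inhibition of cancer cell line growth, read out with a cell viability assay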
# Description: SANGER: Inhibition of human NCI-H810 cell growth in a cell viability assay.
# NCI-H1793 = assay type: functional, cell-based, Homo sapiens; details: Homo sapiens, NCI-H1793;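 further: cell growth inhibition, read out by a cell viability assay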
# Description: SANGER: Inhibition of human NCI-H1793 cell growth in a cell viability assay.
# GI-ME-N = assay type: functional, cell-based, Homo sapiens; details: Homo sapiens, GI-ME-N;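 further: growth inhibition of human GI-ME-N cells, read out with a cell viability assay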
# Description: SANGER: Inhibition of human GI-ME-N cell growth in a cell viability assay.
# KYSE-450 = assay type: functional, cell-based; details: Homo sapiens;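 further: cell growth inhibition measured by a viability assay in human KYSE-450 cells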
# Description: SANGER: Inhibition of human KYSE-450 cell growth in a cell viability assay.
# LN-405 = assay type: functional, cell-based, Homo sapiens; details: Homo sapiens, LN-405
# Description: SANGER: Inhibition of human LN-405 cell growth in a cell viability assay.
# DU-145 = assay type: functional, cell-based, Homo sapiens; details: Homo sapiens, DU-145
# Description: SANGER: Inhibition of human DU-145 cell growth in a cell viability assay.
# CHP-212 = assay type: functional, cell-based, Homo sapiens; details: Homo sapiens, CHP-212
# Description: SANGER: Inhibition of human CHP-212 cell growth in a cell viability assay.
# Huh-7 = assay type: functional, cell-based, Homo sapiens; details: Homo sapiens, Huh-7;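 further: HuH-7 cell growth inhibition, read out with a cell viability assay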
# Description: SANGER: Inhibition of human HuH-7 cell growth in a cell viability assay.
# NB69 = assay type: functional, cell-based, Homo sapiens; details: Homo sapiens, NB69;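 further: growth inhibition of NB69 cells, determined by a cell viability assay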
# Description: SANGER: Inhibition of human NB69 cell growth in a cell viability assay.
# KINGS-1 = assay type: functional, cell-based, Homo sapiens; details: Homo sapiens, KINGS-1;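 further: cell viability assay measuring suppression of KINGS-1 cell growth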
# Description: SANGER: Inhibition of human KINGS-1 cell growth in a cell viability assay.
# NCI-H2122 = assay type: functional, cell-based, Homo sapiens; details: Homo sapiens, NCI-H2122;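 further: growth inhibition of the cells, read out with a cell viability assay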
# Description: SANGER: Inhibition of human NCI-H2122 cell growth in a cell viability assay.
# DMS-273 = assay type: functional, cell-based, Homo sapiens; details: Homo sapiens, DMS-273
# Description: SANGER: Inhibition of human DMS-273 cell growth in a cell viability assay.
# NCI-H69 = assay type: functional, cell-based; details: Homo sapiens;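 further: growth inhibition of the cell line, read out with a cell viability assay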
# Description: SANGER: Inhibition of human NCI-H69 cell growth in a cell viability assay.
smiles,measurement,setting,value
COc1ccc(C2=N[C@@H](c3ccc(Cl)cc3)[C@@H](c3ccc(Cl)cc3)N2C(=O)N2CCNC(=O)C2)c(OC(C)C)c1 [NUTLIN-3],IC50,SiHa,> 8 µM
same,IC50,GT3TKB,> 8 µM
same,IC50,GMS-10,> 8 µM
same,IC50,IGR-1,> 8 µM
same,IC50,OMC-1,> 8 µM
same,IC50,MIA PaCa-2,> 8 µM
same,IC50,Lu-65,> 8 µM
same,IC50,IST-MEL1,> 8 µM
same,IC50,QIMR-WIL,1.61 µM
same,IC50,COR-L88,> 8 µM
same,IC50,NCI-H2228,> 8 µM
same,IC50,EW-11,> 8 µM
same,IC50,UACC-257,> 8 µM
same,IC50,HCT-116,3.3 µM
same,IC50,TGBC1TKB,> 8 µM
same,IC50,DOK,> 8 µM
same,IC50,BFTC-909,> 8 µM
same,IC50,LB996-RCC,3.63 µM
same,IC50,IST-MES1,4.41 µM
same,IC50,NCI-H596,> 8 µM
same,IC50,HCC 2998,> 8 µM
same,IC50,NCI-N87,> 8 µM
same,IC50,OVCAR-3,> 8 µM
same,IC50,Ca-Ski,> 8 µM
same,IC50,C32,5.6 µM
same,IC50,MLMA,> 8 µM
same,IC50,SW1990,> 8 µM
same,IC50,HMV-2 cell line,> 8 µM
same,IC50,VA-ES-BJ,2.54 µM
same,IC50,NCI-H1395,> 8 µM
same,IC50,LCLC-103H cell line,> 8 µM
same,IC50,NCI-H1792,> 8 µM
same,IC50,SW756,> 8 µM
same,IC50,SW684,> 8 µM
same,IC50,SF-126,> 8 µM
same,IC50,5637,> 8 µM
same,IC50,Ca9-22,> 8 µM
same,IC50,NCI-H810,> 8 µM
same,IC50,NCI-H1793,> 8 µM
same,IC50,GI-ME-N,6.22 µM
same,IC50,KYSE-450,> 8 µM
same,IC50,LN-405,> 8 µM
same,IC50,DU-145,> 8 µM
same,IC50,CHP-212,1.81 µM
same,IC50,Huh-7,> 8 µM
same,IC50,NB69,2.65 µM
same,IC50,KINGS-1,> 8 µM
same,IC50,NCI-H2122,6.59 µM
same,IC50,DMS-273,> 8 µM
same,IC50,NCI-H69,> 8 µM
C=CCc1cccc(/C=N/NC(=O)CN2CCN(Cc3ccccc3)CC2)c1O [PAC-1],IC50,SiHa,> 2.56 µM
same,IC50,GT3TKB,> 2.56 µM
same,IC50,GMS-10,> 2.56 µM
same,IC50,IGR-1,> 2.56 µM
same,IC50,OMC-1,> 2.56 µM
same,IC50,MIA PaCa-2,> 2.56 µM
same,IC50,Lu-65,> 2.56 µM
same,IC50,IST-MEL1,> 2.56 µM
same,IC50,QIMR-WIL,> 2.56 µM
same,IC50,COR-L88,> 2.56 µM
same,IC50,NCI-H2228,> 2.56 µM
same,IC50,EW-11,> 2.56 µM
same,IC50,UACC-257,> 2.56 µM
same,IC50,HCT-116,> 2.56 µM
same,IC50,TGBC1TKB,> 2.56 µM
same,IC50,DOK,> 2.56 µM
same,IC50,BFTC-909,> 2.56 µM
same,IC50,LB996-RCC,> 2.56 µM
same,IC50,IST-MES1,> 2.56 µM
same,IC50,NCI-H596,> 2.56 µM
same,IC50,HCC 2998,1.18 µM
same,IC50,NCI-N87,> 2.56 µM
same,IC50,OVCAR-3,> 2.56 µM
same,IC50,Ca-Ski,> 2.56 µM
same,IC50,C32,> 2.56 µM
same,IC50,MLMA,> 2.56 µM
same,IC50,SW1990,> 2.56 µM
same,IC50,HMV-2 cell line,> 2.56 µM
same,IC50,VA-ES-BJ,> 2.56 µM
same,IC50,NCI-H1395,> 2.56 µM
same,IC50,LCLC-103H cell line,1.12 µM
same,IC50,NCI-H1792,> 2.56 µM
same,IC50,SW756,> 2.56 µM
same,IC50,SW684,> 2.56 µM
same,IC50,SF-126,> 2.56 µM
same,IC50,5637,> 2.56 µM
same,IC50,Ca9-22,> 2.56 µM
same,IC50,NCI-H810,> 2.56 µM
same,IC50,NCI-H1793,> 2.56 µM
same,IC50,GI-ME-N,> 2.56 µM
same,IC50,KYSE-450,> 2.56 µM
same,IC50,LN-405,> 2.56 µM
same,IC50,DU-145,> 2.56 µM
same,IC50,CHP-212,> 2.56 µM
same,IC50,Huh-7,> 2.56 µM
same,IC50,NB69,> 2.56 µM
same,IC50,KINGS-1,> 2.56 µM
same,IC50,NCI-H2122,> 2.56 µM
same,IC50,DMS-273,> 2.56 µM
same,IC50,NCI-H69,> 2.56 µM
Cc1ccc(Nc2nccc(N(C)c3ccc4c(C)n(C)nc4c3)n2)cc1S(N)(=O)=O [PAZOPANIB],IC50,SiHa,> 8 µM
same,IC50,GT3TKB,> 8 µM
same,IC50,GMS-10,> 8 µM
same,IC50,IGR-1,> 8 µM
same,IC50,OMC-1,> 8 µM
same,IC50,MIA PaCa-2,5.6 µM
same,IC50,Lu-65,> 8 µM
same,IC50,IST-MEL1,> 8 µM
same,IC50,QIMR-WIL,> 8 µM
same,IC50,COR-L88,> 8 µM
same,IC50,NCI-H2228,> 8 µM
same,IC50,EW-11,> 8 µM
same,IC50,UACC-257,> 8 µM
same,IC50,HCT-116,> 8 µM
same,IC50,TGBC1TKB,> 8 µM
same,IC50,DOK,> 8 µM
same,IC50,BFTC-909,> 8 µM
same,IC50,LB996-RCC,> 8 µM
same,IC50,IST-MES1,> 8 µM
same,IC50,NCI-H596,> 8 µM
same,IC50,HCC 2998,> 8 µM
same,IC50,NCI-N87,> 8 µM
same,IC50,OVCAR-3,> 8 µM
same,IC50,Ca-Ski,> 8 µM
same,IC50,C32,> 8 µM
same,IC50,MLMA,> 8 µM
same,IC50,SW1990,> 8 µM
same,IC50,HMV-2 cell line,> 8 µM
same,IC50,VA-ES-BJ,> 8 µM
same,IC50,NCI-H1395,> 8 µM
same,IC50,LCLC-103H cell line,1.45 µM
same,IC50,NCI-H1792,> 8 µM
same,IC50,SW756,> 8 µM
same,IC50,SW684,> 8 µM
same,IC50,SF-126,2.47 µM
same,IC50,5637,> 8 µM
same,IC50,Ca9-22,> 8 µM
same,IC50,NCI-H810,6.31 µM
same,IC50,NCI-H1793,> 8 µM
same,IC50,GI-ME-N,> 8 µM
same,IC50,KYSE-450,> 8 µM
same,IC50,LN-405,> 8 µM
same,IC50,DU-145,> 8 µM
same,IC50,CHP-212,> 8 µM
same,IC50,Huh-7,7.69 µM
same,IC50,NB69,> 8 µM
same,IC50,KINGS-1,> 8 µM
same,IC50,NCI-H2122,> 8 µM
same,IC50,DMS-273,4.96 µM
same,IC50,NCI-H69,> 8 µM
